# Tested on: MraY/MurG enzymes
# Assay: Lipid II formation assay (coupled MraY/MurG GlcNAc transferase assay, streptavidin capture)
# Type: biochemical, E. coli
# Protocol: Bacterial membranes are used as a source of enzymes in the coupled MraY/MurG assay for the formation of Lipid II. Wild-type E. coli and MurG over-expressing constructs have been utilized as the membrane donors. Bacteria are grown in Brain Heart Infusion media supplemented with Casamino Acids (BHI/CAA) at 37° C. with aeration, to log phase (OD600=0.7) and centrifuged at 7000×g. Pellets are washed once with 50× the wet pellet weight of 5 mM Tris-HCl (pH 8.0). Pellets are resuspended at a concentration of 2 gms wet pellet/35 mls 5 mM Tris for French Press disruption. Cells are pressure treated at 20,000 psi for 1 minute in a prechilled pressure cell. The membranes generated are collected by ultracentrifugation at 200,000×g for 1 hour at 4° C. Membrane pellets are resuspended in approximately the same volume as the wet pellet weight. This generally yields a membrane concentration of roughly 5 mg/ml. Aliquots are made, and membranes frozen at −80° C. until analysis.
# Reactions for the formation of Lipid II have been optimized in 1.5 ml Eppendorf tubes. […]
# To the Eppendorf tubes containing the reaction mixtures, 500 ul of binding buffer (10 mM Tris-HCl (PH 8.0), 150 mM NaCl, 0.2% Triton X-100) is added. […] The resulting beads are resuspended in buffer, mixed with scintillation cocktail, and counted in a scintillation counter to determine the amount of radioactivity associated with the capture event. […]
effect on the coupled GlcNAc transferase assay (formation of Lipid II) (FIG. 4),Molecule,effect on formation of streptavidin-capturable radiolabeled Lipid II (100 ug/ml)
no effect,CC1(C)S[C@@H]2[C@H](NC(=O)[C@H](N)c3ccccc3)C(=O)N2[C@H]1C(=O)O [ampicillin],
,moenomycin,did not affect

# From US20010049117A1, “ANALOGS OF UDP-MURNAC PEPTIDES, ASSAYS, KITS AND RELATED METHODS OF THEIR USE” (priority 1998, published 2001)
